Assay results: patent US6822146B2, “Sulfonylurea-tolerant sunflower line M7” (priority 2000, dated 2004)
Like-named read-outs stand apart in the source and are kept apart here.

Legend:
GA-M4M7 × RHA274 = experiment: Test A field trial, phytotoxicity, variety E; type: in vivo, sunflower; conditions: variety E
Description: (§1) To generate the hybrids C, D and E, the fourth generation self-pollinated maintainer mutant lines M4M12, M4M11 and M4M7 were chemically sterilized by applying at the bud “star” flower stage a small amount of gibberellic acid solution to sterilize the pollen according to the general method described in Sunflower Science Technology, J. F. Carter ed. (Number 19 in the series “Agronomy”) pp. 339-386. This treatment enables maintainer plants to behave as CMS inbred lines and allows the production of heterozygous resistant hybrids, with the herbicide resistant source coming from the female side. Such crosses allowed evaluating the sexual effect of the mutation source when introduced on the female side of a cross as described in crosses C, D and E versus the male side of a cross as described in crosses F, G and H. Labels I, J and K identify third generation CMS mutant lines crossed with fourth generation maintainer lines to maintain the highly heritable mutant trait in a male sterile homozygous resistant environment. One skilled in sunflower breeding art understands the meaning of such crosses.
(§2) A rating of 0% phytotoxicity means no crop injury.

[1] = test system: Homozygous resistant inbred lines, BC3-M4M12 (I), BC3-M4M11 (J) and BC3-M4M7 (K); experiment: Test A summary, homozygous resistant inbred lines; conditions: Test A application rates; for tolerance of homozygous resistant inbred lines I, J, K: triflusulfuron-methyl at 20 g a.i./ha
Method: In a small field trial, the sunflower varieties described in Table 4 were sprayed post-emergence with a variety of sulfonylurea herbicide treatments.
Broadcast post-emergence applications of formulated sulfonylurea herbicides were performed at the 6-leaf development stage using four randomly distributed replications. Application rates were chosen to match the usual use rates of these herbicides in the crops they are registered in Europe. All herbicides except for metsulfuron-methyl were sprayed in combination with Citowet® non-ionic ethoxylated alcohol at 0.25% volume of formulated product per volume of water applied per hectare.
The evaluation of the maximum (i.e. peak) injury to sunflower varieties by sulfonylurea herbicides was measured by visual ratings, which are listed in Table 5. A rating of 0% phytotoxicity means no crop injury. […] A rating of 100% means the complete destruction of all plants.

BC4-M5M12 × PHA155 = experiment: Test C field phytotoxicity, BC4-M5M12 × PHA155; type: in vivo, sunflower
Description: as §2

BC3-M4M7 = experiment: Test A field trial, phytotoxicity, variety K; type: in vivo, sunflower; conditions: variety K
Description: as §1, §2

BC3-M4M12 = experiment: Test A field trial, phytotoxicity, variety I; type: in vivo, sunflower; conditions: variety I
Description: as §1, §2

H89A × M4M11 = type: in vivo, sunflower; conditions: variety G
Description: as §1, §2

H89A × M4M7 = type: in vivo, sunflower; conditions: variety H
Description: as §1, §2

[2] = test system: Inbred line control: H89A; type: in vivo, sunflower; conditions: variety B
Description: as §1, §2

[3] = test system: Hybrid control: H89A × RHA274; type: in vivo, sunflower; conditions: variety A
Description: as §1, §2

H89A × M4M12 = type: in vivo, sunflower; conditions: variety F
Description: as §1, §2

GA-M4M11 × RHA274 = experiment: Test A field trial, phytotoxicity, variety D; type: in vivo, sunflower; conditions: variety D
Description: as §1, §2

BC4-M5M7 × PHA155 = experiment: Test C field phytotoxicity, BC4-M5M7 × PHA155; type: in vivo, sunflower
Description: as §2

GA-M4M12 × RHA274 = experiment: Test A field trial, phytotoxicity, variety C; type: in vivo, sunflower; conditions: variety C
Description: as §1, §2

BC3-M4M11 = experiment: Test A field trial, phytotoxicity, variety J; type: in vivo, sunflower; conditions: variety J
Description: as §1, §2

[4] = test system: H89A × RHA274 (sulfonylurea-susceptible hybrid); experiment: Test G control of volunteer sunflower, H89A × RHA274; type: in vivo; conditions: 240 g a.i./ha; rated 4 weeks after application; scale 0-100
BC2-M3M11 = experiment: Test G control of volunteer sunflower, BC2-M3M11; type: in vivo; conditions: 240 g a.i./ha; rated 4 weeks after application; scale 0-100
BC2-M3M12 = experiment: Test G control of volunteer sunflower, BC2-M3M12; type: in vivo; conditions: 240 g a.i./ha; rated 4 weeks after application; scale 0-100
[5] = test system: mutants originating from M11 and M12; conditions: Test G rates; phenmedipham alone or combined with triflusulfuron-methyl
Description: This test involved sulfonylurea-resistant sunflower progeny BC2-M3M11 and BC2-M3M12, derived from M11 and M12, respectively. Also, a sulfonylurea-susceptible hybrid, H89A×RHA274, was included for comparison. Plants were sprayed with formulated herbicides at the 4-leaf stage. The efficacy of the treatments on the sunflowers was visually rated 4 weeks after application, using a scale where 0 means no control of the sunflowers, 85 means sufficient efficacy level to stop plants from flowering and propagating, and 100 means a complete destruction of the mutants.
Weed control in sugar beet requires 2-3 herbicide applications per season to efficiently control weeds in this slow growing crop.

[6] = postemergence 18.75 g a.i./ha, 7 DAT
[7] = postemergence 18.75 g a.i./ha, 15 DAT
[8] = postemergence 18.75 g a.i./ha, 30 DAT
[9] = postemergence 37.5 g a.i./ha, 7 DAT
[10] = postemergence 37.5 g a.i./ha, 15 DAT
[11] = postemergence 37.5 g a.i./ha, 30 DAT

COc1cc(OC)nc(NC(=O)NS(=O)(=O)c2ncccc2C(=O)N(C)C)n1 [Nicosulfuron, nicosulfuron]
Maximum Phytotoxicity (GA-M4M7 × RHA274; 30 g a.i./ha post-emergence): 13%
tolerance of homozygous resistant lines compared with heterozygous hybrids [1]: the homozygous resistant lines were more tolerant
tolerance of homozygous resistant inbred lines I, J, K [1]: marginally tolerant
Phytotoxicity Rating After Treatment (BC4-M5M12 × PHA155; [6]): 28%
Phytotoxicity Rating After Treatment (BC4-M5M12 × PHA155; [7]): 20%
Phytotoxicity Rating After Treatment (BC4-M5M12 × PHA155; [8]): 18%
Phytotoxicity Rating After Treatment (BC4-M5M12 × PHA155; [9]): 42%
Phytotoxicity Rating After Treatment (BC4-M5M12 × PHA155; [10]): 52%
Phytotoxicity Rating After Treatment (BC4-M5M12 × PHA155; [11]): 50%
Maximum Phytotoxicity (BC3-M4M7; 30 g a.i./ha post-emergence): 14%
Maximum Phytotoxicity (BC3-M4M12; 30 g a.i./ha post-emergence): 8%
Maximum Phytotoxicity (H89A × M4M11; 30 g a.i./ha post-emergence): 20%
Maximum Phytotoxicity (H89A × M4M7; 30 g a.i./ha post-emergence): 16%
Maximum Phytotoxicity ([2]; 30 g a.i./ha post-emergence): 54%
Maximum Phytotoxicity ([3]; 30 g a.i./ha post-emergence): 33%
Maximum Phytotoxicity (H89A × M4M12; 30 g a.i./ha post-emergence): 15%
Maximum Phytotoxicity (GA-M4M11 × RHA274; 30 g a.i./ha post-emergence): 13%
Phytotoxicity Rating After Treatment (BC4-M5M7 × PHA155; [6]): 37%
Phytotoxicity Rating After Treatment (BC4-M5M7 × PHA155; [7]): 40%
Phytotoxicity Rating After Treatment (BC4-M5M7 × PHA155; [8]): 18%
Phytotoxicity Rating After Treatment (BC4-M5M7 × PHA155; [9]): 57%
Phytotoxicity Rating After Treatment (BC4-M5M7 × PHA155; [10]): 55%
Phytotoxicity Rating After Treatment (BC4-M5M7 × PHA155; [11]): 50%
Maximum Phytotoxicity (GA-M4M12 × RHA274; 30 g a.i./ha post-emergence): 12%
Maximum Phytotoxicity (BC3-M4M11; 30 g a.i./ha post-emergence): 23%

COC(=O)Nc1cccc(OC(=O)Nc2cccc(C)c2)c1 [Phenmedipham]
Efficacy on H89A × RHA274 [4]: 0
Efficacy on BC2-M3M11 (BC2-M3M11): 0
Efficacy on BC2-M3M12 (BC2-M3M12): 7
control of sulfonylurea-susceptible or sulfonylurea-resistant volunteer sunflowers [5]: ineffective alone

COc1nc(C)nc(NC(=O)NS(=O)(=O)c2ccccc2OCCCl)n1 [Triasulfuron, triasulfuron]
Maximum Phytotoxicity (GA-M4M7 × RHA274; 20 g a.i./ha post-emergence): 97%
tolerance of homozygous resistant inbred lines I, J, K [1]: as susceptible as the standards
Maximum Phytotoxicity (BC3-M4M7; 20 g a.i./ha post-emergence): 95%
Maximum Phytotoxicity (BC3-M4M12; 20 g a.i./ha post-emergence): 93%
Maximum Phytotoxicity (H89A × M4M11; 20 g a.i./ha post-emergence): 98%
Maximum Phytotoxicity (H89A × M4M7; 20 g a.i./ha post-emergence): 98%
Maximum Phytotoxicity ([2]; 20 g a.i./ha post-emergence): 100%
Maximum Phytotoxicity ([3]; 20 g a.i./ha post-emergence): 100%
Maximum Phytotoxicity (H89A × M4M12; 20 g a.i./ha post-emergence): 98%
Maximum Phytotoxicity (GA-M4M11 × RHA274; 20 g a.i./ha post-emergence): 99%
Maximum Phytotoxicity (GA-M4M12 × RHA274; 20 g a.i./ha post-emergence): 94%
Maximum Phytotoxicity (BC3-M4M11; 20 g a.i./ha post-emergence): 95%
